Drawing on US20220402950A1, “SUBSTITUTED BENZIMIDAZOLES AS PAD4 INHIBITORS” (BRISTOL-MYERS SQUIBB COMPANY, priority 2018, published 2022), this text covers IC50 for 23 molecules.

Like-named read-outs stand apart in the source and are kept apart here.

The assay deals with human PAD4 (hPAD4) (Homo sapiens, UniProt Q9UM07). Briefly: RFMS Human PAD4 Functional Assay. In kind it is biochemical. To be noted: 5 nM hPAD4, 250 μM BAEE. An outline of the steps: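 RapidFire ESI-MS quantification, normalised to a modified-citrulline internal standard, after phenyl glyoxal (final 4 mM) derivatisation of the TCA-quenched reaction. The enzyme (10 nM) sat 30 min with compound (up to 50 μM final) before 500 μM BAEE (as added) started a 90 min, 37 °C reaction. Buffer: HEPES pH 7.5, 50 μM calcium, 5 μM TPEN.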
Sequence of human PAD4 (hPAD4) (Q9UM07 whole entry): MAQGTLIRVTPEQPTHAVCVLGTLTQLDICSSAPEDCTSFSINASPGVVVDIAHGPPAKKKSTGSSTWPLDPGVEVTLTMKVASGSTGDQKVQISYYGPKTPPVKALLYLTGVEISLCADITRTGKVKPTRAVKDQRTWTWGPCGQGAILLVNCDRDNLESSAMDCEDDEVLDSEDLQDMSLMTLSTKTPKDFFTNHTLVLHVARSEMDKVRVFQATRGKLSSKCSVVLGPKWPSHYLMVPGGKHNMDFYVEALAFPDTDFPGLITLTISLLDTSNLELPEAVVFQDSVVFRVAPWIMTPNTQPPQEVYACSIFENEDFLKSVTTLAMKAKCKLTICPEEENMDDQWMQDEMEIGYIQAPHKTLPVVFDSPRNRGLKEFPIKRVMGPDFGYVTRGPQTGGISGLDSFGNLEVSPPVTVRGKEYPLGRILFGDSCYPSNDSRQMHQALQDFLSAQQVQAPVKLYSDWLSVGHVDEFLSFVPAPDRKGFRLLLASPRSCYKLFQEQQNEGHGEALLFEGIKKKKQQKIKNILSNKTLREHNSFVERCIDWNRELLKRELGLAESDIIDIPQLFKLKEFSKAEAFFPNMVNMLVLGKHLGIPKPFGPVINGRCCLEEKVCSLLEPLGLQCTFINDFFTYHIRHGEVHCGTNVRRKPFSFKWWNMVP

The mark [1] stands for this setting: hPAD4 RFMS IC50, human PAD4, rapid-fire mass spectrum (RFMS) assay.
The mark [2] stands for this setting: human PAD4, rapid-fire mass spectrum (RFMS) assay, read-out: hPAD4 RFMS IC50.

On to `COc1cc(C(=O)N2C[C@H]3CC[C@@H]2[C@@H]3N)cc2nc(-c3cc4cccc(C5CCCC5)c4n3CC3CC3)n(C)c12` [Example 6, (1R,4R,7R)-2-{2-[7-cyclopentyl-1-(cyclopropylmethyl)-1H-indol-2-yl]-7-methoxy-1-methyl-1H-1,3-benzodiazole-5-carbonyl}-2-azabicyclo[2.2.1]heptan-7-amine], for which the midpoint of inhibition under setting [1], the IC50, lay at 190 nM. `COc1cc(C(=O)N2C[C@H]3CC[C@@H]2[C@@H]3N)cc2nc(-c3cc4cccc(C5CCC(N)CC5)c4n3CC3CC3)n(C)c12` (stereo partly drawn) [Example 13, (1R,4R,7R)-2-{2-[7-(4-aminocyclohexyl)-1-(cyclopropylmethyl)-1H-indol-2-yl]-7-methoxy-1-methyl-1H-1,3-benzodiazole-5-carbonyl}-2-azabicyclo[2.2.1]heptan-7-amine] registered an IC50 under setting [1] of 16 nM. In the case of `COc1cc(C(=O)N2C[C@H]3CC[C@@H]2[C@@H]3N)cc2nc(-c3cc4cccc(-c5ccc(C(N)=O)cc5F)c4n3CC3CC3)n(C)c12` [Example 191, 4-(2-(5-((1R,4R,7R)-7-amino-2-azabicyclo[2.2.1]heptane-2-carbonyl)-7-methoxy-1-methyl-1H-benzo[d]imidazol-2-yl)-1-(cyclopropylmethyl)-1H-indol-7-yl)-3-fluorobenzamide], inhibition under setting [1] was half-maximal at 81 nM (IC50).

Consider `COc1cc(C(=O)N2C[C@H]3CC[C@@H]2[C@@H]3N)cc2nc(-c3cc4cccc(C5CCN(C(=O)CO)CC5)c4n3CC3CC3)n(C)c12` [Example 240, 1-(4-(2-(5-((1R,4R,7R)-7-amino-2-azabicyclo[2.2.1]heptane-2-carbonyl)-7-methoxy-1-methyl-1H-benzo[d]imidazol-2-yl)-1-(cyclopropylmethyl)-1H-indol-7-yl)piperidin-1-yl)-2-hydroxyethan-1-one], for which, under setting [1], the IC50 worked out at 15 nM. `COc1cc(C(=O)N2C[C@H](N)C[C@@H](F)C2)cc2nc(-c3cc4cccc(C5CC(C(=O)N6CCCC6)C5)c4n3CC3CC3)n(C)c12` (single isomer, unassigned) [Example 116] gave an IC50 under setting [1] of 95 nM. In the case of `COc1cc(C(=O)N2C[C@H]3CC[C@@H]2[C@@H]3N)cc2nc(-c3cc4cccc(C5CC(C(=O)N6CC[C@H](O)C6)C5)c4n3CC3CC3)n(C)c12` (single isomer, unassigned) [Example 53], the 50% inhibitory concentration (IC50) under setting [1] came to 51 nM. The same measure, in the same setting: the figure for `COc1cc(C(=O)N2C[C@H]3CC[C@@H]2[C@@H]3N)cc2nc(-c3cc4cccc(C5CN(C(=O)c6ccccc6)C5)c4n3CC3CC3)n(C)c12` [Example 74, (1R,4R,7R)-2-{2-[7-(1-benzoylazetidin-3-yl)-1-(cyclopropylmethyl)-1H-indol-2-yl]-7-methoxy-1-methyl-1H-1,3-benzodiazole-5-carbonyl}-2-azabicyclo[2.2.1]heptan-7-amine] is 71 nM; for `COc1cc(C(=O)N2CC3CCC2[C@@H]3N)cc2nc(-c3cc4cccc(-c5cccc(CO)c5)c4n3CC3CC3)n(C)c12` (stereo partly drawn) [Example 136, ((7R)-7-amino-2-azabicyclo[2.2.1]heptan-2-yl)(2-(1-(cyclopropylmethyl)-7-(3-(hydroxymethyl)phenyl)-1H-indol-2-yl)-7-methoxy-1-methyl-1H-benzo[d]imidazol-5-yl)methanone] it is 77 nM. Take `COc1cc(C(=O)N2C[C@H]3CC[C@@H]2[C@@H]3N)cc2nc(-c3cc4cccc(C5CC6(CNC6)C5)c4n3CC3CC3)n(C)c12` [Example 61, (1R,4R,7R)-2-[2-(7-{2-azaspiro[3.3]heptan-6-yl}-1-(cyclopropylmethyl)-1H-indol-2-yl)-7-methoxy-1-methyl-1H-1,3-benzodiazole-5-carbonyl]-2-azabicyclo[2.2.1]heptan-7-amine]: the IC50 under setting [2] came to 34 nM. In the case of `COc1cc(C(=O)N2C[C@H]3CC[C@@H]2[C@@H]3N)cc2nc(-c3cc4cccc(CCCO)c4n3CC3CC3)n(C)c12` [Example 2, ((1R,4R,7R)-7-amino-2-azabicyclo[2.2.1]heptan-2-yl)(2-(1-(cyclopropylmethyl)-7-(3-hydroxypropyl)-1H-indol-2-yl)-7-methoxy-1-methyl-1H-benzo[d]imidazol-5-yl)methanone], the concentration for half-maximal inhibition (IC50) under setting [2] was found to be 32 nM.

For the molecule `COc1cc(C(=O)N2C[C@H]3CC[C@@H]2[C@@H]3N)cc2nc(-c3cc4cccc(-c5ccc6c(c5)C(C)(O)C(=O)N6)c4n3CC3CC3)n(C)c12` (stereo partly drawn) [Example 192, 5-(2-(5-((1R,4R,7R)-7-amino-2-azabicyclo[2.2.1]heptane-2-carbonyl)-7-methoxy-1-methyl-1H-benzo[d]imidazol-2-yl)-1-(cyclopropylmethyl)-1H-indol-7-yl)-3-hydroxy-3-methylindolin-2-one], the IC50 under setting [1] was determined as 28 nM.

Molecule `COc1cc(C(=O)N2C[C@H]3CC[C@@H]2[C@@H]3N)cc2nc(-c3cc4cccc(C5CC(C(=O)N6CCCC6)C5)c4n3CC3CC3)n(C)c12` (single isomer, unassigned) [Example 49] yielded an IC50 under setting [1] of 34 nM. For `COc1cc(C(=O)N2C[C@H]3CC[C@@H]2[C@@H]3N)cc2nc(-c3cc4cccc(-c5ccc(O)cc5C#N)c4n3CC3CC3)n(C)c12` [Example 193, 2-(2-(5-((1R,4R,7R)-7-amino-2-azabicyclo[2.2.1]heptane-2-carbonyl)-7-methoxy-1-methyl-1H-benzo[d]imidazol-2-yl)-1-(cyclopropylmethyl)-1H-indol-7-yl)-5-hydroxybenzonitrile], under setting [1], the IC50 turned out to be 33 nM. Take `[2H]C([2H])([2H])N(C(=O)C1CC(c2cccc3cc(-c4nc5cc(C(=O)N6C[C@H]7CC[C@@H]6[C@@H]7N)cc(OC)c5n4C)n(CC4CC4)c23)C1)C([2H])([2H])[2H]` (single isomer, unassigned; isomer 2) [Example 196]: the IC50 under setting [1] came out at 53 nM. With `COc1cc(C(=O)N2CC3CCC2[C@@H]3N)cc2nc(-c3cc4cccc(Nc5ccnc(C)c5)c4n3CC3CC3)n(C)c12` (stereo partly drawn) [Example 163, ((7R)-7-amino-2-azabicyclo[2.2.1]heptan-2-yl)(2-(1-(cyclopropylmethyl)-7-((2-methylpyridin-4-yl)amino)-1H-indol-2-yl)-7-methoxy-1-methyl-1H-benzo[d]imidazol-5-yl)methanone], under setting [1], inhibition was half-maximal at 58 nM (IC50). Regarding `COc1cc(C(=O)N2C[C@H]3CC[C@@H]2[C@@H]3N)cc2nc(-c3cc4cccc(C5CCN(C(=O)COCC(F)(F)F)CC5)c4n3CC3CC3)n(C)c12` [Example 232, 1-(4-(2-(5-((1R,4R,7R)-7-amino-2-azabicyclo[2.2.1]heptane-2-carbonyl)-7-methoxy-1-methyl-1H-benzo[d]imidazol-2-yl)-1-(cyclopropylmethyl)-1H-indol-7-yl)piperidin-1-yl)-2-(2,2,2-trifluoroethoxy)ethan-1-one], under setting [1], the midpoint of inhibition, the IC50, lay at 19 nM.

Molecule `COc1cc(C(=O)N2C[C@H]3CC[C@@H]2[C@@H]3N)cc2nc(-c3cc4cccc(C5CC(C(=O)N6CC[C@@H](O)C6)C5)c4n3CC3CC3)n(C)c12` (single isomer, unassigned) [Example 52] came in with a half-maximal inhibitory concentration (IC50) under setting [1] of 97 nM. The same measure, in the same setting: the figure for `COc1cc(C(=O)N2C[C@H]3CC[C@@H]2[C@@H]3N)cc2nc(-c3cc4cccc(C5CCN(C(=O)C(C)OC)CC5)c4n3CC3CC3)n(C)c12` (stereo partly drawn) [Example 238, 1-(4-(2-(5-((1R,4R,7R)-7-amino-2-azabicyclo[2.2.1]heptane-2-carbonyl)-7-methoxy-1-methyl-1H-benzo[d]imidazol-2-yl)-1-(cyclopropylmethyl)-1H-indol-7-yl)piperidin-1-yl)-2-methoxypropan-1-one] is 104 nM; for `COc1cc(C(=O)N2C[C@H]3CC[C@@H]2[C@@H]3N)cc2nc(-c3cc4cccc(Nc5cn(C)nc5C)c4n3CC3CC3)n(C)c12` [Example 173, ((1R,4R,7R)-7-amino-2-azabicyclo[2.2.1]heptan-2-yl)(2-(1-(cyclopropylmethyl)-7-((1,3-dimethyl-1H-pyrazol-4-yl)amino)-1H-indol-2-yl)-7-methoxy-1-methyl-1H-benzo[d]imidazol-5-yl)methanone] it is 42 nM.

Molecule `COc1cc(C(=O)N2C[C@H]3CC[C@@H]2[C@@H]3N)cc2nc(-c3cc4cccc(NC5CCN(C)CC5)c4n3CC3CC3)n(C)c12` [Example 170, ((1R,4R,7R)-7-amino-2-azabicyclo[2.2.1]heptan-2-yl)(2-(1-(cyclopropylmethyl)-7-((1-methylpiperidin-4-yl)amino)-1H-indol-2-yl)-7-methoxy-1-methyl-1H-benzo[d]imidazol-5-yl)methanone] had an IC50 under setting [1] of 59 nM.

For `COc1cc(C(=O)N2C[C@H]3CC[C@@H]2[C@@H]3N)cc2nc(-c3cc4cccc(-c5cccc6c5CNC6=O)c4n3CC3CC3)n(C)c12` [Example 96, 4-(2-{5-[(1R,4R,7R)-7-amino-2-azabicyclo[2.2.1]heptane-2-carbonyl]-7-methoxy-1-methyl-1H-1,3-benzodiazol-2-yl}-1-(cyclopropylmethyl)-1H-indol-7-yl)-2,3-dihydro-1H-isoindol-1-one], the IC50 under setting [1] turned out to be 144 nM. For `COC(=O)c1cc(=O)[nH]c2ccc(-c3cccc4cc(-c5nc6cc(C(=O)N7C[C@H]8CC[C@@H]7[C@@H]8N)cc(OC)c6n5C)n(CC5CC5)c34)cc12` [Example 101, methyl 6-(2-{5-[(1R,4R,7R)-7-amino-2-azabicyclo[2.2.1]heptane-2-carbonyl]-7-methoxy-1-methyl-1H-1,3-benzodiazol-2-yl}-1-(cyclopropylmethyl)-1H-indol-7-yl)-2-oxo-1,2-dihydroquinoline-4-carboxylate], the half-inhibitory concentration (IC50) under setting [1] came out at 47 nM. Same read-out and setting: to `COc1ccccc1NC(=O)N1CCC(c2cccc3cc(-c4nc5cc(C(=O)N6C[C@H]7CC[C@@H]6[C@@H]7N)cc(OC)c5n4C)n(CC4CC4)c23)CC1` [Example 247, 4-(2-(5-((1R,4R,7R)-7-amino-2-azabicyclo[2.2.1]heptane-2-carbonyl)-7-methoxy-1-methyl-1H-benzo[d]imidazol-2-yl)-1-(cyclopropylmethyl)-1H-indol-7-yl)-N-(2-methoxyphenyl)piperi-dine-1-carboxamide] belongs 9 nM.
